Experimental data taken from ChEMBL document CHEMBL3351915 (Bioorg Med Chem Lett, 2015).

Key:
[1] = biological target: ATP-dependent translocase ABCB1 (Homo sapiens, UniProt P08183); experiment: Inhibition of human recombinant MDR1 in cell membrane fraction preincubated for 5 mins measured after 40 mins by Pgp-Glo luciferase assay; format: cell-based
[2] = biological target: T1, MDR1 (P-gp, ABCB1) (Homo sapiens, UniProt P08183); experiment: Inhibition of human recombinant MDR1 in cell membrane fraction preincubated for 5 mins at 100 uM measured after 40 mins by Pgp-Glo luciferase assay; format: cell-based
[3] = Fraction unbound in Sprague-Dawley rat at 5 mg/kg, po; settings: in vivo
[4] = biological target: T1, MDR1 (P-gp, ABCB1); experiment: Inhibition of human recombinant MDR1 in cell membrane fraction preincubated for 5 mins at 0.01 uM measured after 40 mins by Pgp-Glo luciferase assay; format: cell-based
[5] = biological target: T1, MDR1 (P-gp, ABCB1); experiment: Inhibition of human recombinant MDR1 in cell membrane fraction preincubated for 5 mins at 10 uM measured after 40 mins by Pgp-Glo luciferase assay; format: cell-based
[6] = Absolute bioavailability in dog; format: ADME, organism-based, Canis lupus familiaris; settings: in vivo
[7] = system: Plasma; experiment: Total steady state plasma concentration in Sprague-Dawley rat at 5 mg/kg, po; format: ADME, organism-based; set-up: dose 5 mg/kg, route oral; settings: in vivo
[8] = biological target: T1, MDR1 (P-gp, ABCB1); experiment: Inhibition of human recombinant MDR1 in cell membrane fraction preincubated for 5 mins at 1 uM measured after 40 mins by Pgp-Glo luciferase assay; format: cell-based
[9] = biological target: T1, MDR1 (P-gp, ABCB1); experiment: Inhibition of human recombinant MDR1 in cell membrane fraction preincubated for 5 mins at 0.1 uM measured after 40 mins by Pgp-Glo luciferase assay; format: cell-based
[10] = Oral bioavailability in human; settings: in vivo
[11] = biological target: T2, CYP3A4 (Homo sapiens, UniProt P08684); experiment: Inhibition of human recombinant CYP3A4 expressed in insect cell microsomes preincubated for 10 mins at 1 uM by fluorescence assay; settings: recombinant enzyme
[12] = biological target: T2, CYP3A4; experiment: Inhibition of human recombinant CYP3A4 expressed in insect cell microsomes preincubated for 10 mins at 0.1 uM by fluorescence assay; settings: recombinant enzyme
[13] = biological target: T2, CYP3A4; experiment: Inhibition of human recombinant CYP3A4 expressed in insect cell microsomes preincubated for 10 mins at 10 uM by fluorescence assay; settings: recombinant enzyme

T1 sequence (P08183 whole entry): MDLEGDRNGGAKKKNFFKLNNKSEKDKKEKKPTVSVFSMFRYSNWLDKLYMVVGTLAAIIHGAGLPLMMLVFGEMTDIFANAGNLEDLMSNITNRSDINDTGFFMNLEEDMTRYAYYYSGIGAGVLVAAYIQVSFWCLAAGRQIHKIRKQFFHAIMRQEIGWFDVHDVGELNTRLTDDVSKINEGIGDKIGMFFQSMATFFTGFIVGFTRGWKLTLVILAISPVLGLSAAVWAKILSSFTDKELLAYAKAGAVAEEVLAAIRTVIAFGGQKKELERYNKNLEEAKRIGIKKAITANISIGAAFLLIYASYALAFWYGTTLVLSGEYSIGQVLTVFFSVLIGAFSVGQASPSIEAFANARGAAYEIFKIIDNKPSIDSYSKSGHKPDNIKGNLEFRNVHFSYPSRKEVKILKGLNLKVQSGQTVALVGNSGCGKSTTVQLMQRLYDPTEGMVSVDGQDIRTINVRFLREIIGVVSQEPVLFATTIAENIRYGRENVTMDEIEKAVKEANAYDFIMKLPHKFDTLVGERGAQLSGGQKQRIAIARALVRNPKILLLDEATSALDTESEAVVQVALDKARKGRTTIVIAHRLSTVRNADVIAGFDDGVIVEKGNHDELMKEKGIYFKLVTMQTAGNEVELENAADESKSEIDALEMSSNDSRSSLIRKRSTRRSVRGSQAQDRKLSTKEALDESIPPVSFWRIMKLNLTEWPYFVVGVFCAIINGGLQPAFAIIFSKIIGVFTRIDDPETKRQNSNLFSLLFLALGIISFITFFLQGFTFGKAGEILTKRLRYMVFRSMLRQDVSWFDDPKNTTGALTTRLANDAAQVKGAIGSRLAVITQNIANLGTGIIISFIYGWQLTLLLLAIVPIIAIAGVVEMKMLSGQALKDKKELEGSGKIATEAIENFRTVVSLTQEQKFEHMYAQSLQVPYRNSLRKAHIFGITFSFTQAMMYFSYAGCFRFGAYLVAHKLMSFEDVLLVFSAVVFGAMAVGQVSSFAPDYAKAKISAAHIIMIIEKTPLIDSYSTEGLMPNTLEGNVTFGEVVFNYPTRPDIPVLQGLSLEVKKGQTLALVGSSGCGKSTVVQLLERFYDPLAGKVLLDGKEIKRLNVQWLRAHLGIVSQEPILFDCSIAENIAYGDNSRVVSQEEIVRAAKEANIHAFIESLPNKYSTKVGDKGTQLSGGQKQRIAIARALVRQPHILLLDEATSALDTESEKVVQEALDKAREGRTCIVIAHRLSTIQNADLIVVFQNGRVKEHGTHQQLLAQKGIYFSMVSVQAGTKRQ
T2 sequence (P08684 whole entry): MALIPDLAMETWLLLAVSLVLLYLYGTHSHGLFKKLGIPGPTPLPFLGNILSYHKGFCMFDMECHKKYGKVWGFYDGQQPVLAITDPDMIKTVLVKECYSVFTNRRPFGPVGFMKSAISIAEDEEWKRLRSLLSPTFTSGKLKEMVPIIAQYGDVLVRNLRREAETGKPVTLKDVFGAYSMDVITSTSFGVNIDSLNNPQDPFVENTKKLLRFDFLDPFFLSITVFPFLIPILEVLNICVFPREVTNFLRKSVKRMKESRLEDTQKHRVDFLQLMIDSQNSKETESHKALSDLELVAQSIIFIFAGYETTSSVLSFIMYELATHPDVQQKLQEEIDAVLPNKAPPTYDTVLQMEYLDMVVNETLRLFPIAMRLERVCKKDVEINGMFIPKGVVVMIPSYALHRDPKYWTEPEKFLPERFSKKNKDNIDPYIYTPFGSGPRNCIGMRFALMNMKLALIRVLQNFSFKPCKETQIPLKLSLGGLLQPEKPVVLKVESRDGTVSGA
ATP-dependent translocase ABCB1, sequence (P08183 whole entry): as the sequence (P08183 whole entry) above

SMILES: COc1cc2c(cc1OC)C(=O)C(CC1CCN(Cc3ccccc3)CC1)C2 (stereo not drawn) [DONEPEZIL]
- IC50 [1]: 34.9 µM
- inhibition at 40 min, 100 µM [2]: 76%
- fraction unbound [3]: 0.04
- inhibition at 40 min, 0.01 µM [4]: < 15%
- inhibition at 40 min, 10 µM [5]: 23.5%
- bioavailability [6]: 50%
- concentration [7]: 60 nM
- inhibition at 40 min, 1 µM [8]: 17.8%
- inhibition at 40 min, 0.1 µM [9]: < 15%
- bioavailability [10]: 92%

SMILES: CC(=O)N1CCN(c2ccc(OCC3COC(Cn4ccnc4)(c4ccc(Cl)cc4Cl)O3)cc2)CC1 (stereo not drawn) [KETOCONAZOLE]
- inhibition at 1 µM [11]: 87.2%
- inhibition at 0.1 µM [12]: 33.9%
- inhibition at 10 µM [13]: 92.3%
